Test results published in ChEMBL document CHEMBL3817807, “Sequence-specific DNA binding by long hairpin pyrrole-imidazole polyamides containing an 8-amino-3,6-dioxaoctanoic acid unit” (Bioorg Med Chem, 2016).
Values after ≈ are worked out from the molar mass of the structure shown. Each block holds one molecule with its values, some of them ahead of it. Active and inactive are the calls of the source. No cut-off for these calls is given here.

Assays:
[1] = Drug uptake in human MDA-MB-231 cell nucleus at 10 uM after 72 hrs by FITC/Hoechst 33342-staining based confocal microscopic analysis; format: ADME; conditions: mda-mb-231, 72 h
[2] = Binding affinity to 5'-biotin labeled GCGAGGCAGACACGCTTTTGCGTGTCTGCCTCGC-3' DNA (unknown origin) assessed as association rate by SPR analysis
[3] = Binding affinity to 5'-biotin labeled GCGAGGCAGACACGCTTTTGCGTGTCTGCCTCGC-3' DNA (unknown origin) by SPR analysis
[4] = Binding affinity to 5'-biotin labeled GCGAGGCAGACACGCTTTTGCGTGTCTGCCTCGC-3' DNA (unknown origin) assessed as dissociation rate by SPR analysis
[5] = Binding affinity to AGTCAGCCT oligonucleotide DNA sequence (unknown origin) at 50 nM incubated for 16 hrs by PCR based Bind-n-Seq analysis
[6] = Binding affinity to AGGCAGACT oligonucleotide DNA sequence (unknown origin) at 50 nM incubated for 16 hrs by PCR based Bind-n-Seq analysis
[7] = Binding affinity to AGTCTGCCT oligonucleotide DNA sequence (unknown origin) at 50 nM incubated for 16 hrs by PCR based Bind-n-Seq analysis
[8] = Binding affinity to TAGTCGGCC oligonucleotide DNA sequence (unknown origin) at 50 nM incubated for 16 hrs by PCR based Bind-n-Seq analysis
[9] = Binding affinity to ATGTCTGCC oligonucleotide DNA sequence (unknown origin) at 50 nM incubated for 16 hrs by PCR based Bind-n-Seq analysis
[10] = Binding affinity to TGGCAGACA oligonucleotide DNA sequence (unknown origin) at 50 nM incubated for 16 hrs by PCR based Bind-n-Seq analysis
[11] = Binding affinity to TTGTCGGCC oligonucleotide DNA sequence (unknown origin) at 50 nM incubated for 16 hrs by PCR based Bind-n-Seq analysis
[12] = Binding affinity to TGTCAGCCT oligonucleotide DNA sequence (unknown origin) at 50 nM incubated for 16 hrs by PCR based Bind-n-Seq analysis
[13] = Binding affinity to TGGCAGACT oligonucleotide DNA sequence (unknown origin) at 50 nM incubated for 16 hrs by PCR based Bind-n-Seq analysis
[14] = Binding affinity to AGTCGGCCT oligonucleotide DNA sequence (unknown origin) at 50 nM incubated for 16 hrs by PCR based Bind-n-Seq analysis
[15] = Binding affinity to AGGCTCTCA oligonucleotide DNA sequence (unknown origin) at 50 nM incubated for 16 hrs by PCR based Bind-n-Seq analysis
[16] = Binding affinity to GTCTCCGAA oligonucleotide DNA sequence (unknown origin) at 50 nM incubated for 16 hrs by PCR based Bind-n-Seq analysis
[17] = Binding affinity to ATCGGCAGA oligonucleotide DNA sequence (unknown origin) at 50 nM incubated for 16 hrs by PCR based Bind-n-Seq analysis
[18] = Binding affinity to AATTTACCT oligonucleotide DNA sequence (unknown origin) at 50 nM incubated for 16 hrs by PCR based Bind-n-Seq analysis
[19] = Binding affinity to CTCTCTGCA oligonucleotide DNA sequence (unknown origin) at 50 nM incubated for 16 hrs by PCR based Bind-n-Seq analysis
[20] = Binding affinity to GAGTCTCCC oligonucleotide DNA sequence (unknown origin) at 50 nM incubated for 16 hrs by PCR based Bind-n-Seq analysis
[21] = Binding affinity to GGGCAGTCA oligonucleotide DNA sequence (unknown origin) at 50 nM incubated for 16 hrs by PCR based Bind-n-Seq analysis
[22] = Binding affinity to ACAGCCTCG oligonucleotide DNA sequence (unknown origin) at 50 nM incubated for 16 hrs by PCR based Bind-n-Seq analysis
[23] = Binding affinity to GTGAGCCTA oligonucleotide DNA sequence (unknown origin) at 50 nM incubated for 16 hrs by PCR based Bind-n-Seq analysis
[24] = Binding affinity to GGGCTAGAC oligonucleotide DNA sequence (unknown origin) at 50 nM incubated for 16 hrs by PCR based Bind-n-Seq analysis
[25] = Binding affinity to TGGTAGACA oligonucleotide DNA sequence (unknown origin) at 50 nM incubated for 16 hrs by PCR based Bind-n-Seq analysis
[26] = Binding affinity to AGACAGTCA oligonucleotide DNA sequence (unknown origin) at 50 nM incubated for 16 hrs by PCR based Bind-n-Seq analysis
[27] = Binding affinity to AGGCAGACA oligonucleotide DNA sequence (unknown origin) at 50 nM incubated for 16 hrs by PCR based Bind-n-Seq analysis
[28] = Binding affinity to AGACTGACA oligonucleotide DNA sequence (unknown origin) at 50 nM incubated for 16 hrs by PCR based Bind-n-Seq analysis
[29] = Binding affinity to TGGCTAACA oligonucleotide DNA sequence (unknown origin) at 50 nM incubated for 16 hrs by PCR based Bind-n-Seq analysis
[30] = Binding affinity to AGGCTTACA oligonucleotide DNA sequence (unknown origin) at 50 nM incubated for 16 hrs by PCR based Bind-n-Seq analysis
[31] = Binding affinity to ATGCAGTCA oligonucleotide DNA sequence (unknown origin) at 50 nM incubated for 16 hrs by PCR based Bind-n-Seq analysis
[32] = Binding affinity to ATGCAGACA oligonucleotide DNA sequence (unknown origin) at 50 nM incubated for 16 hrs by PCR based Bind-n-Seq analysis
[33] = Binding affinity to CGGCTAACA oligonucleotide DNA sequence (unknown origin) at 50 nM incubated for 16 hrs by PCR based Bind-n-Seq analysis
[34] = Binding affinity to AGGCTGATA oligonucleotide DNA sequence (unknown origin) at 50 nM incubated for 16 hrs by PCR based Bind-n-Seq analysis
[35] = Aqueous solubility of the compound […] assessed as saturation concentration by nanodrop analysis; format: physicochemical

Drug uptake [1]: Active
Compound: CC(=O)Nc1cn(C)c(C(=O)Nc2cn(C)c(C(=O)NCCOCCOCC(=O)Nc3cn(C)c(C(=O)Nc4cc(C(=O)Nc5cc(C(=O)NCCCC(=O)Nc6cn(C)c(C(=O)Nc7cc(C(=O)Nc8cc(C(=O)NCCC(=O)Nc9cn(C)c(C(=O)Nc%10cc(C(=O)Nc%11cc(C(=O)NCCC(=O)NCCCN(C)CCCNC(=S)Nc%12ccc%13c(c%12)C(=O)OC%13%12c%13ccc(O)cc%13Oc%13cc(O)ccc%13%12)n(C)c%11)n(C)c%10)n9)n(C)c8)n(C)c7)n6)n(C)c5)n(C)c4)n3)n2)n1

Drug uptake [1]: Active
Compound: CC(=O)Nc1cn(C)c(C(=O)Nc2cn(C)c(C(=O)Nc3cc(C(=O)NCCC(=O)Nc4cn(C)c(C(=O)Nc5cc(C(=O)Nc6cc(C(=O)NCCCC(=O)Nc7cn(C)c(C(=O)Nc8cc(C(=O)Nc9cc(C(=O)NCCC(=O)Nc%10cn(C)c(C(=O)Nc%11cc(C(=O)Nc%12cc(C(=O)NCCC(=O)NCCCN(C)CCCNC(=S)Nc%13ccc%14c(c%13)C(=O)OC%14%13c%14ccc(O)cc%14Oc%14cc(O)ccc%14%13)n(C)c%12)n(C)c%11)n%10)n(C)c9)n(C)c8)n7)n(C)c6)n(C)c5)n4)n(C)c3)n2)n1

Ka [2]: 1 ×10⁴ /Ms
Kd [3]: 250 nM
Kd [4]: 4.5 ×10⁻³ /s
Compound: CC(=O)Nc1cn(C)c(C(=O)Nc2cn(C)c(C(=O)Nc3cc(C(=O)NCCC(=O)Nc4cn(C)c(C(=O)Nc5cc(C(=O)Nc6cc(C(=O)NCCCC(=O)Nc7cn(C)c(C(=O)Nc8cc(C(=O)NCCOCCOCC(=O)Nc9cn(C)c(C(=O)Nc%10cc(C(=O)Nc%11cc(C(=O)NCCC(=O)NCCCN(C)CCCN)n(C)c%11)n(C)c%10)n9)n(C)c8)n7)n(C)c6)n(C)c5)n4)n(C)c3)n2)n1

Drug uptake [1]: Active
Compound: CC(=O)Nc1cn(C)c(C(=O)Nc2cn(C)c(C(=O)NCCOCCOCC(=O)Nc3cn(C)c(C(=O)Nc4cc(C(=O)Nc5cc(C(=O)NCCCC(=O)Nc6cn(C)c(C(=O)Nc7cc(C(=O)NCCOCCOCC(=O)Nc8cn(C)c(C(=O)Nc9cc(C(=O)Nc%10cc(C(=O)NCCC(=O)NCCCN(C)CCCNC(=S)Nc%11ccc%12c(c%11)C(=O)OC%12%11c%12ccc(O)cc%12Oc%12cc(O)ccc%12%11)n(C)c%10)n(C)c9)n8)n(C)c7)n6)n(C)c5)n(C)c4)n3)n2)n1

Activity [5]: Active
Activity [6]: Active
Activity [7]: Active
Activity [8]: Active
Activity [9]: Active
Activity [10]: Active
Activity [11]: Active
Activity [12]: Active
Activity [13]: Active
Activity [14]: Active
Compound: CC(=O)Nc1cn(C)c(C(=O)Nc2cn(C)c(C(=O)NCCOCCOCC(=O)Nc3cn(C)c(C(=O)Nc4cc(C(=O)Nc5cc(C(=O)NCCCC(=O)Nc6cn(C)c(C(=O)Nc7cc(C(=O)NCCOCCOCC(=O)Nc8cn(C)c(C(=O)Nc9cc(C(=O)Nc%10cc(C(=O)NCCC(=O)NCCCN(C)CCCNC(=O)CCOCCOCCOCCOCCOCCOCCOCCOCCOCCOCCOCCOCCNC(=O)CCCC[C@@H]%11SC[C@@H]%12NC(=O)N[C@@H]%12%11)n(C)c%10)n(C)c9)n8)n(C)c7)n6)n(C)c5)n(C)c4)n3)n2)n1

Ka [2]: 1.3 ×10⁵ /Ms
Kd [3]: 15 nM
Kd [4]: 1.9 ×10⁻³ /s
Compound: CC(=O)Nc1cn(C)c(C(=O)Nc2cn(C)c(C(=O)NCCC(=O)NCCC(=O)Nc3cn(C)c(C(=O)Nc4cc(C(=O)Nc5cc(C(=O)NCCCC(=O)Nc6cn(C)c(C(=O)Nc7cc(C(=O)Nc8cc(C(=O)NCCC(=O)Nc9cn(C)c(C(=O)Nc%10cc(C(=O)Nc%11cc(C(=O)NCCC(=O)NCCCN(C)CCCN)n(C)c%11)n(C)c%10)n9)n(C)c8)n(C)c7)n6)n(C)c5)n(C)c4)n3)n2)n1

Activity [15]: Active
Activity [16]: Active
Activity [17]: Active
Activity [18]: Active
Activity [19]: Active
Activity [20]: Active
Activity [21]: Active
Activity [22]: Active
Activity [23]: Active
Activity [24]: Active
Compound: CC(=O)Nc1cn(C)c(C(=O)Nc2cn(C)c(C(=O)NCCC(=O)NCCC(=O)Nc3cn(C)c(C(=O)Nc4cc(C(=O)Nc5cc(C(=O)NCCCC(=O)Nc6cn(C)c(C(=O)Nc7cc(C(=O)Nc8cc(C(=O)NCCC(=O)Nc9cn(C)c(C(=O)Nc%10cc(C(=O)Nc%11cc(C(=O)NCCC(=O)NCCCN(C)CCCNC(=O)CCOCCOCCOCCOCCOCCOCCOCCOCCOCCOCCOCCOCCNC(=O)CCCC[C@@H]%12SC[C@@H]%13NC(=O)N[C@@H]%13%12)n(C)c%11)n(C)c%10)n9)n(C)c8)n(C)c7)n6)n(C)c5)n(C)c4)n3)n2)n1

Activity [25]: Active
Activity [26]: Active
Activity [27]: Active
Activity [28]: Active
Activity [29]: Active
Activity [30]: Active
Activity [31]: Active
Activity [32]: Active
Activity [33]: Active
Activity [34]: Active
Compound: CC(=O)Nc1cn(C)c(C(=O)Nc2cn(C)c(C(=O)Nc3cc(C(=O)NCCC(=O)Nc4cn(C)c(C(=O)Nc5cc(C(=O)Nc6cc(C(=O)NCCCC(=O)Nc7cn(C)c(C(=O)Nc8cc(C(=O)Nc9cc(C(=O)NCCC(=O)Nc%10cn(C)c(C(=O)Nc%11cc(C(=O)Nc%12cc(C(=O)NCCC(=O)NCCCN(C)CCCNC(=O)CCOCCOCCOCCOCCOCCOCCOCCOCCOCCOCCOCCOCCNC(=O)CCCC[C@@H]%13SC[C@@H]%14NC(=O)N[C@@H]%14%13)n(C)c%12)n(C)c%11)n%10)n(C)c9)n(C)c8)n7)n(C)c6)n(C)c5)n4)n(C)c3)n2)n1

Ka [2]: 1 ×10⁵ /Ms
Kd [3]: 18 nM
solubility [35]: 12.2 mM (≈ 23.3 mg/mL)
Kd [4]: 1.8 ×10⁻³ /s
Compound: CC(=O)Nc1cn(C)c(C(=O)Nc2cn(C)c(C(=O)NCCOCCOCC(=O)Nc3cn(C)c(C(=O)Nc4cc(C(=O)Nc5cc(C(=O)NCCCC(=O)Nc6cn(C)c(C(=O)Nc7cc(C(=O)Nc8cc(C(=O)NCCC(=O)Nc9cn(C)c(C(=O)Nc%10cc(C(=O)Nc%11cc(C(=O)NCCC(=O)NCCCN(C)CCCN)n(C)c%11)n(C)c%10)n9)n(C)c8)n(C)c7)n6)n(C)c5)n(C)c4)n3)n2)n1

Ka [2]: 2.4 ×10⁵ /Ms
Kd [3]: 5.9 nM
solubility [35]: 9.1 mM (≈ 17.8 mg/mL)
Kd [4]: 1.4 ×10⁻³ /s
Compound: CC(=O)Nc1cn(C)c(C(=O)Nc2cn(C)c(C(=O)Nc3cc(C(=O)NCCC(=O)Nc4cn(C)c(C(=O)Nc5cc(C(=O)Nc6cc(C(=O)NCCCC(=O)Nc7cn(C)c(C(=O)Nc8cc(C(=O)Nc9cc(C(=O)NCCC(=O)Nc%10cn(C)c(C(=O)Nc%11cc(C(=O)Nc%12cc(C(=O)NCCC(=O)NCCCN(C)CCCN)n(C)c%12)n(C)c%11)n%10)n(C)c9)n(C)c8)n7)n(C)c6)n(C)c5)n4)n(C)c3)n2)n1

Ka [2]: 1.8 ×10⁴ /Ms
Kd [3]: 16 nM
solubility [35]: 13.9 mM (≈ 25.9 mg/mL)
Kd [4]: 3 ×10⁻⁴ /s
Compound: CC(=O)Nc1cn(C)c(C(=O)Nc2cn(C)c(C(=O)NCCOCCOCC(=O)Nc3cn(C)c(C(=O)Nc4cc(C(=O)Nc5cc(C(=O)NCCCC(=O)Nc6cn(C)c(C(=O)Nc7cc(C(=O)NCCOCCOCC(=O)Nc8cn(C)c(C(=O)Nc9cc(C(=O)Nc%10cc(C(=O)NCCC(=O)NCCCN(C)CCCN)n(C)c%10)n(C)c9)n8)n(C)c7)n6)n(C)c5)n(C)c4)n3)n2)n1
